Like-named read-outs stand apart in the source and are kept apart here.
Columns and labels:
[1] = molecular target: CDK15/Cyclin Y (Homo sapiens, UniProt Q96Q40); assay: NanoBRET live-cell target engagement, NanoLuc-CDK15/Cyclin Y in HEK-293; type: binding; details: CDK15/Y, 10µM
[2] = molecular target: CDK6/Cyclin D1 (Homo sapiens, UniProt Q00534); assay: NanoBRET live-cell target engagement, NanoLuc-CDK6/Cyclin D1 in HEK-293; type: binding; details: CDK6/D1, 10µM
[3] = molecular target: CDK10/Cyclin L2 (Homo sapiens, UniProt Q15131); assay: NanoBRET live-cell target engagement, CDK10-NanoLuc/Cyclin L2 in HEK-293; details: 10µM
[4] = molecular target: CDK8/Cyclin C (Homo sapiens, UniProt P49336); assay: NanoBRET live-cell target engagement, NanoLuc-CDK8/Cyclin C in HEK-293; type: binding; details: CDK8/C, 10µM
Chain of CDK8/Cyclin C (P49336 whole entry): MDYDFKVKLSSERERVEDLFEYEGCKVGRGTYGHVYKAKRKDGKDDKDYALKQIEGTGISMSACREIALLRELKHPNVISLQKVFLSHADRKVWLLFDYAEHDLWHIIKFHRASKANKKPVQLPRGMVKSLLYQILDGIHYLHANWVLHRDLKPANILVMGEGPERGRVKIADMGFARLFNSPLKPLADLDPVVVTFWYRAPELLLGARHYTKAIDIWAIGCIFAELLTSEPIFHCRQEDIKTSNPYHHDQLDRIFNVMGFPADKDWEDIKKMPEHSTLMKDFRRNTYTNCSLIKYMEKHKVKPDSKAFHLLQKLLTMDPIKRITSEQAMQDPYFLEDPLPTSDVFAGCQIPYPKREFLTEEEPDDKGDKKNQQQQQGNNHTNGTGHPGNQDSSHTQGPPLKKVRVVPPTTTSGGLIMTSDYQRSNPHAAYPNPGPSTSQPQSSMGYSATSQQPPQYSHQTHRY
Chain of CDK8/Cyclin C (P24863 whole entry partner): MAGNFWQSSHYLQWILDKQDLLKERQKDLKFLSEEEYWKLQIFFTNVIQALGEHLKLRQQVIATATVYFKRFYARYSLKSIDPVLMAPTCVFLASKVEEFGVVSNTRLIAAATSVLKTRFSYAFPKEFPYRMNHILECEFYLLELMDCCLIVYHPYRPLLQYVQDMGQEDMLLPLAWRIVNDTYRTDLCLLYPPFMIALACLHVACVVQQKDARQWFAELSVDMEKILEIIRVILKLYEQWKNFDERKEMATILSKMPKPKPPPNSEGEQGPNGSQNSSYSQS

[5] = molecular target: CDK7 (Homo sapiens, UniProt P50613); assay: NanoBRET live-cell target engagement, NanoLuc-CDK7 in HEK-293; type: binding; details: CDK7, 10µM
Chain of CDK7 (P50613 whole entry): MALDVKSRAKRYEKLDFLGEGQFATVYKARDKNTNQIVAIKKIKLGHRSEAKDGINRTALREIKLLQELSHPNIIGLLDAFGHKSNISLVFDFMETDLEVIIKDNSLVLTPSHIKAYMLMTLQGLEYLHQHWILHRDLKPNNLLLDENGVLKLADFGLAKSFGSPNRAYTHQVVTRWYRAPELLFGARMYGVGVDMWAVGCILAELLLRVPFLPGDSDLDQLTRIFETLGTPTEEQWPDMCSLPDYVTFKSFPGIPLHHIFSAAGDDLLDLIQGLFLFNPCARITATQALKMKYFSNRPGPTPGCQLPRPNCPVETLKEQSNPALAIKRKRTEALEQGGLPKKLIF

[6] = molecular target: CDK16/Cyclin Y (Homo sapiens, UniProt Q00536); assay: NanoBRET live-cell target engagement, CDK16-NanoLuc/Cyclin Y in HEK-293; type: binding; details: CDK16/Y, 10µM
[7] = molecular target: T1, CDK11A/Cyclin L2 (Homo sapiens, UniProt Q9UQ88); assay: NanoBRET live-cell target engagement, CDK11A-NanoLuc/Cyclin L2 in HEK-293; type: binding; details: CDK11a/L2, 10µM
T1 sequence (Q9UQ88 1-783): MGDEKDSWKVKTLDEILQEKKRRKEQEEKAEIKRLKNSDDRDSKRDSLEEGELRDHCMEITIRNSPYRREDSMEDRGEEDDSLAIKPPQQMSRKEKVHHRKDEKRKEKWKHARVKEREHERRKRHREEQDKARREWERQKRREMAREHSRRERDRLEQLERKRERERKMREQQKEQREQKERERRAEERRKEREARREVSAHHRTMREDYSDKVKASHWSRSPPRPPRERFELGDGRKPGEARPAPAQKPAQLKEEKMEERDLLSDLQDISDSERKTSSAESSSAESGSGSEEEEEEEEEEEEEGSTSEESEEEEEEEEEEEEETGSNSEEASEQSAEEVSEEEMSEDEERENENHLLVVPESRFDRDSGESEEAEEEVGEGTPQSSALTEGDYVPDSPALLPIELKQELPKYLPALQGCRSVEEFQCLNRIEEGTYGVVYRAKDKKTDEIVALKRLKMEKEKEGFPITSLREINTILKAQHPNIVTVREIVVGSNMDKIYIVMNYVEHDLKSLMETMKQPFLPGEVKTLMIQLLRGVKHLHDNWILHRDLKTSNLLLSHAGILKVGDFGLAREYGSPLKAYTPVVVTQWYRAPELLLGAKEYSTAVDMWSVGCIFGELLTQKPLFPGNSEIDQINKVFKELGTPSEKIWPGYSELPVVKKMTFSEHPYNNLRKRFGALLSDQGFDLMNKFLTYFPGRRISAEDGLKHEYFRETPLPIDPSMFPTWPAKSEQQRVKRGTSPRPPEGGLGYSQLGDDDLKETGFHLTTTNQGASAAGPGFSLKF

[8] = molecular target: CDK17/Cyclin Y (Homo sapiens, UniProt Q00537); assay: NanoBRET live-cell target engagement, CDK17-NanoLuc/Cyclin Y in HEK-293; type: binding; details: CDK17/Y, 10µM
Chain of CDK17/Cyclin Y (Q00537 whole entry): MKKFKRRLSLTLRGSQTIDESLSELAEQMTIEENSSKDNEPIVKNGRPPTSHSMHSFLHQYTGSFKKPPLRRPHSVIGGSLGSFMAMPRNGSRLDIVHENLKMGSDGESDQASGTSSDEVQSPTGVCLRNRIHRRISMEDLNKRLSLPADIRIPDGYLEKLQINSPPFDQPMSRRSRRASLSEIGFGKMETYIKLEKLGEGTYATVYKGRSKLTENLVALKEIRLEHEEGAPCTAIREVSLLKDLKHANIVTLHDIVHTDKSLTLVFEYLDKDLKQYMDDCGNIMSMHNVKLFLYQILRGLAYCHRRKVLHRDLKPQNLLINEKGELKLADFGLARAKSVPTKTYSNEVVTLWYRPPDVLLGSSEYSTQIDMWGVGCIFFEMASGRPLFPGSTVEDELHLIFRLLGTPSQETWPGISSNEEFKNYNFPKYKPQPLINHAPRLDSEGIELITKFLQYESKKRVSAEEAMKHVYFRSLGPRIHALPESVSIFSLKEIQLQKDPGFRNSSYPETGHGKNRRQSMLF
Chain of CDK17/Cyclin Y (Q8ND76 whole entry partner): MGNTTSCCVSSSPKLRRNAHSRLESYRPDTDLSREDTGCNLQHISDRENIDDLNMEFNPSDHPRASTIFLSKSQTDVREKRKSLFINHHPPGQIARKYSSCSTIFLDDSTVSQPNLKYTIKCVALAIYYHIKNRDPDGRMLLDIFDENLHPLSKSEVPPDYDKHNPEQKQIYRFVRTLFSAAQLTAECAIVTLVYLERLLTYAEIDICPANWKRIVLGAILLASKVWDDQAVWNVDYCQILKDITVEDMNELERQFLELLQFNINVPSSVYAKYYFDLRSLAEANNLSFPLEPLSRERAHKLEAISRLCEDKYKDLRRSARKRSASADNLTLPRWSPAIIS

[9] = molecular target: CDK11B/Cyclin L2 (Homo sapiens, UniProt P21127); assay: NanoBRET live-cell target engagement, CDK11B-NanoLuc/Cyclin L2 in HEK-293; type: binding; details: CDK11b/L2, 10µM
[10] = molecular target: CDK4/Cyclin D1 (Homo sapiens, UniProt P11802); assay: NanoBRET live-cell target engagement, NanoLuc-CDK4/Cyclin D1 in HEK-293; type: binding; details: CDK4/D1, 10µM
[11] = molecular target: CDK18/Cyclin Y (Homo sapiens, UniProt Q07002); assay: NanoBRET live-cell target engagement, CDK18-NanoLuc/Cyclin Y in HEK-293; type: binding
Chain of CDK18/Cyclin Y (Q07002 whole entry): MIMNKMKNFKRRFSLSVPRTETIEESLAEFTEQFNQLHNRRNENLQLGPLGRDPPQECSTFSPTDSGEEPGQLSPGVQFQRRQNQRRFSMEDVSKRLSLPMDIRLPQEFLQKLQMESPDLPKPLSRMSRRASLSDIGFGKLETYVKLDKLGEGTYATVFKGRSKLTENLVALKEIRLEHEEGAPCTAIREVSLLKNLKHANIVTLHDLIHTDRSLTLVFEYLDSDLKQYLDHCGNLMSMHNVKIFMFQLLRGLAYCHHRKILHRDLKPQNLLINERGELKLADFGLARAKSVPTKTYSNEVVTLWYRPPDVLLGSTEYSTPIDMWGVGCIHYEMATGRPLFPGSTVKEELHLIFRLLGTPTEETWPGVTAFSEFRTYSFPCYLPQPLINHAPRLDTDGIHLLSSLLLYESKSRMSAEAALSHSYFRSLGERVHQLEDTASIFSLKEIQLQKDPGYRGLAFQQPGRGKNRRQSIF
Chain of CDK18/Cyclin Y (Q8ND76 whole entry partner): as the sequence (Q8ND76 whole entry partner) above

[12] = molecular target: CDK19/Cyclin C (Homo sapiens, UniProt Q9BWU1); assay: NanoBRET live-cell target engagement, NanoLuc-CDK19/Cyclin C in HEK-293; details: 10µM
Chain of CDK19/Cyclin C (Q9BWU1 whole entry): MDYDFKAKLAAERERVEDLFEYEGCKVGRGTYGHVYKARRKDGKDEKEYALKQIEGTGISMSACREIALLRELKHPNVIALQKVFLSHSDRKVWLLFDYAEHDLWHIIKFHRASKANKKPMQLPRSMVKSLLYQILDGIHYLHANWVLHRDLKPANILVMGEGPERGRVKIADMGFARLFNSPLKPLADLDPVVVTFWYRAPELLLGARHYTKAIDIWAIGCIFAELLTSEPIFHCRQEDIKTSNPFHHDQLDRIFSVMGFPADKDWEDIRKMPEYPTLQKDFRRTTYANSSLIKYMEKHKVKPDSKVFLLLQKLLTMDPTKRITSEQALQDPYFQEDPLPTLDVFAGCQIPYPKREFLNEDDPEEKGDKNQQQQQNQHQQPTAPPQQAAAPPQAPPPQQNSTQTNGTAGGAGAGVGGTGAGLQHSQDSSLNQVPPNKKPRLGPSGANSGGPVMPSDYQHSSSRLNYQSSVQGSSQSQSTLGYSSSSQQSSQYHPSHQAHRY
Chain of CDK19/Cyclin C (P24863 whole entry partner): as the sequence (P24863 whole entry partner) above

[13] = molecular target: CDK9/Cyclin K (Homo sapiens, UniProt P50750); assay: NanoBRET live-cell target engagement, NanoLuc-CDK9/Cyclin K in HEK-293; type: binding; details: CDK9/K, 10µM
Chain of CDK9/Cyclin K (P50750 whole entry): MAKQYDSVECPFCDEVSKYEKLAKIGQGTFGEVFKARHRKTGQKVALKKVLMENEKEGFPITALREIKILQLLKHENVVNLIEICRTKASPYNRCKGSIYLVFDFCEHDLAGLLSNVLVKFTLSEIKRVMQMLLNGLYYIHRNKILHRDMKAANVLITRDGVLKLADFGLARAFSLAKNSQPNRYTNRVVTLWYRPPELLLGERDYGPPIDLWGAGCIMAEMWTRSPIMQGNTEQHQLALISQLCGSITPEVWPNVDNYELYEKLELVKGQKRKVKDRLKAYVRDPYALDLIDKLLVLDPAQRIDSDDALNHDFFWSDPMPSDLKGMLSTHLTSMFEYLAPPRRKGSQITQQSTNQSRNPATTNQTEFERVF
Chain of CDK9/Cyclin K (O75909 whole entry partner): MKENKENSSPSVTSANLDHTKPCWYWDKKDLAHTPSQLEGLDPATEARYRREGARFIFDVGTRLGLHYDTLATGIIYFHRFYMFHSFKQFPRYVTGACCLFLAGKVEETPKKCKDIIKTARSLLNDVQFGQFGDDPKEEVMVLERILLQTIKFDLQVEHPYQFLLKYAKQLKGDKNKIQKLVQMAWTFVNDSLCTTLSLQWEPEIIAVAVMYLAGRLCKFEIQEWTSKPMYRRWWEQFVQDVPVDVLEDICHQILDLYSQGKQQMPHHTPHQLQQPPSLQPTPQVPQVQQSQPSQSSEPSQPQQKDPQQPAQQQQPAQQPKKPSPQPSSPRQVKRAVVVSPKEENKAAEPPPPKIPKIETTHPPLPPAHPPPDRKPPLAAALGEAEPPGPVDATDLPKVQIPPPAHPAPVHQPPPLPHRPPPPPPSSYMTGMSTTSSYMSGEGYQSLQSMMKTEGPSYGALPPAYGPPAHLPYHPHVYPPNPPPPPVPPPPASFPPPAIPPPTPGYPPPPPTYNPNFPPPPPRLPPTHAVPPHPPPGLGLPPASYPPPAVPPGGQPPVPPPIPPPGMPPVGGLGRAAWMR

[14] = molecular target: CDK20/Cyclin H (Homo sapiens, UniProt Q8IZL9); assay: NanoBRET live-cell target engagement, NanoLuc-CDK20/Cyclin H in HEK-293; type: binding; details: CDK20/H, 10µM
[15] = molecular target: CDK5/CDK5R1 (Homo sapiens, UniProt Q00535); assay: NanoBRET live-cell target engagement, CDK5-NanoLuc/CDK5R1 in HEK-293; type: binding; details: CDK5/CDK5R1, 10µM
[16] = molecular target: CDK13/Cyclin K (Homo sapiens, UniProt Q14004); assay: NanoBRET live-cell target engagement, CDK13-NanoLuc/Cyclin K in HEK-293; type: binding; details: CDK13/K, 10µM
[17] = average of replicates, read-out: Inhibition at 10µM (%) Average
[18] = read-out: Inhibition at 10µM (%) Replicate 1
[19] = read-out: Inhibition at 10µM (%) Replicate 2

Chain of CDK6/Cyclin D1 (Q00534 whole entry): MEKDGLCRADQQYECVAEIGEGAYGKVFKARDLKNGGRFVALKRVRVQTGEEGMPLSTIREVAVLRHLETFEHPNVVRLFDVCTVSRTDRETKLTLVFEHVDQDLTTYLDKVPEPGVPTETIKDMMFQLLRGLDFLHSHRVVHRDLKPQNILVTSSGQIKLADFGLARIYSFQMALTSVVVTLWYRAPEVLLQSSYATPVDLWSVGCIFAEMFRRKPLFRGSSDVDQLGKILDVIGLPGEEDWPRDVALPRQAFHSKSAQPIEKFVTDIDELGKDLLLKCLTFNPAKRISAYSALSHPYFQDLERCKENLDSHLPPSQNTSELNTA
Chain of CDK6/Cyclin D1 (P24385 whole entry partner): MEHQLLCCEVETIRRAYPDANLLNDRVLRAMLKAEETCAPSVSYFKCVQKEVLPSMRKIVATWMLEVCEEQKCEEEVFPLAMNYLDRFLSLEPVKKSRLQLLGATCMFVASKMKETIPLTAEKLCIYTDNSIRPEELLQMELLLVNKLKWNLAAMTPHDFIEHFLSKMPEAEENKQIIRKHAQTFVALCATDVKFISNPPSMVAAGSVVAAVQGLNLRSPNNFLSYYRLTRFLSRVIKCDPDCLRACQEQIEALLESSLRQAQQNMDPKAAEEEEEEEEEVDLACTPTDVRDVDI

`CCN1CCN(Cc2ccc(Nc3ncc(F)c(-c4cc(F)c5nc(C)n(C(C)C)c5c4)n3)nc2)CC1` [Abemaciclib] gave an inhibition at 10 µM [1, 17] of 57.4%, an inhibition at 10 µM [1, 18] of 57.3% and an inhibition at 10 µM [1, 19] of 57.5%. For the same compound, the inhibition at 10 µM [2, 17] was 99.4%, the inhibition at 10 µM [2, 18] was 99.4% and the inhibition at 10 µM [2, 19] was 99.4%. The inhibition at 10 µM ([3]; read-out: Inhibition at 10µM (%) Average, CDK10/L2, average of replicates) was 20.9%, the inhibition at 10 µM ([3]; read-out: Inhibition at 10µM (%) Replicate 1, CDK10/L2) was 21.5% and the inhibition at 10 µM ([3]; read-out: Inhibition at 10µM (%) Replicate 2, CDK10/L2) was 20.2%. For the same compound, the inhibition at 10 µM [4, 17] was 35.7%, the inhibition at 10 µM [4, 18] was 27.2% and the inhibition at 10 µM [4, 19] was 44.2%. It also gave an inhibition at 10 µM [5, 17] of 63.4%, an inhibition at 10 µM [5, 18] of 65.2% and an inhibition at 10 µM [5, 19] of 61.7%. For the same compound, the inhibition at 10 µM [6, 18] was 86.3%, the inhibition at 10 µM [6, 19] was 85.8% and the inhibition at 10 µM [7, 17] was 21.8%. For the same compound, the inhibition at 10 µM [7, 18] was 19.9%, the inhibition at 10 µM [7, 19] was 23.7% and the inhibition at 10 µM [8, 17] was 83%. The inhibition at 10 µM [8, 18] was 83%, the inhibition at 10 µM [8, 19] was 82.9% and the inhibition at 10 µM [9, 17] was 27.7%. The inhibition at 10 µM [9, 18] was 27.9%, the inhibition at 10 µM [9, 19] was 27.6% and the inhibition at 10 µM [10, 17] was 99.6%. It also gave an inhibition at 10 µM [10, 18] of 100%, an inhibition at 10 µM [10, 19] of 99% and an inhibition at 10 µM ([11]; CDK18/Y, average of replicates, read-out: Inhibition at 10µM (%) Average) of 74.8%. The inhibition at 10 µM ([11]; CDK18/Y, read-out: Inhibition at 10µM (%) Replicate 1) was 73.2%, the inhibition at 10 µM ([11]; CDK18/Y, read-out: Inhibition at 10µM (%) Replicate 2) was 76.3% and the IC50 ([11]; CDK18/Y, read-out: IC50 (nM) Replicate 1) was 304 nM. It also gave an IC50 ([11]; IC50 (nM) Average*, CDK18/Y, n=3 average ± SEM, n=2 average to 2 significant figures) of 380 ± 60 nM, an IC50 ([11]; IC50 (nM) Replicate 2, CDK18/Y) of 350 nM and an IC50 ([11]; IC50 (nM) Replicate 3, CDK18/Y) of 496 nM. For the same compound, the inhibition at 10 µM ([12]; read-out: Inhibition at 10µM (%) Average, CDK19/C, average of replicates) was 40.7%, the inhibition at 10 µM ([12]; read-out: Inhibition at 10µM (%) Replicate 1, CDK19/C) was 41.9% and the inhibition at 10 µM ([12]; read-out: Inhibition at 10µM (%) Replicate 2, CDK19/C) was 39.5%. It also gave an inhibition at 10 µM [13, 17] of 84.3%, an inhibition at 10 µM [13, 18] of 79.2% and an inhibition at 10 µM [13, 19] of 89.3%. It also gave an inhibition at 10 µM [14, 18] of 8.8%, an inhibition at 10 µM [14, 19] of 28.5% and an inhibition at 10 µM [15, 17] of 40.9%. For the same compound, the inhibition at 10 µM [15, 18] was 38%, the inhibition at 10 µM [15, 19] was 43.8% and the inhibition at 10 µM [16, 17] was 7.8%. It also gave an inhibition at 10 µM [16, 18] of 5.2% and an inhibition at 10 µM [16, 19] of 10.4%.
